This is an account of results in patent US11306306B1, “Selective degradation of proteins” (SyntheX, Inc., priority 2019, dated 2022).

For experiment [1], the system named is TIR1 bridged to plant protein (AXR) fused to a TetR DBD and an AD. As to the kind of experiment: Positive readout high throughput screen for bridging agents, death agent, 96 well plate growth (OD600), E3 ligase TIR1. The class given is cell-based, Saccharomyces cerevisiae. As to conditions: 10 uM, quadruplicate wells, 30° C., final timepoint 48 hrs. The method, then: In another example, cells expressing a heterologous E3 ligase, in this case TIR1, were assayed for survival to discover bridging agents that can bridge TIR1 to the bait and lead to degradation, thereby enabling cell growth (schematic shown in FIG. 10A). The target was a plant protein (AXR) that is ubiquitinated and degraded in response to Indol Acetic Acid fused to a TetR DBD and an AD. Cells containing the E3 ligases and the death agent were mated to cells containing the target. The mated cells were then aliquoted into a 96 well plate at a starting OD600=0.05. In this example, various compounds were used in quadruplicate wells at a concentration of 10 uM, and plated cells starting at OD600=0.05 (with the border wells on each side kept as negative controls). Plates were incubated at 30° C. with shaking and continuously monitored for growth using OD600 in a Cytation 1 instrument.

Experiment [2] deals with COI1b bridged to plant protein (AXR) fused to a TetR DBD and an AD. As to the kind of experiment: Positive readout screen for bridging agents, death agent, 96 well plate growth (OD600), E3 ligase COI1b. In kind it is cell-based, S. cerevisiae. As to conditions: duplicate wells, 30° C., final timepoint 84 hrs. On the procedure: In yet another example, cells expressing a heterologous E3 ligase, in this case COI1b, were assayed for survival to discover bridging agents that can bridge COI1b to the bait and lead to degradation, thereby enabling cell growth (as shown in FIG. 11A). S. cerevisiae cells were modified to minimize drug efflux by deletion of drug efflux pumps and transcription factors encoding for their expression as previously described (Chinen, 2011). The target used was a plant protein (AXR) that is ubiquitinated and degraded in response to Jasmonate-isoleucine fused to a TetR DBD and an AD. Cells containing the E3 ligases and the death agents were mated to cells containing the target. The mated cells were then aliquoted into a 96 well plate at a starting OD600=0.05. Various compounds were tested in duplicate wells at a concentration gradient down from 100 uM. […] Plates were incubated at 30° C. with shaking and continuously monitored for growth using OD600 in a Cytation 1 instrument.

Experiment [3] has as its system aggressive adherent cancer cell lines (e.g. HeLa, A431, T47D, MCF7, MDA-MB-231). The note with it: several aggressive adherent cancer cell lines (e.g. HeLa, A431, T47D, MCF7, MDA-MB-231); cited from earlier work.

As to `O=C(O)Cc1ccccc1` [PAA], in experiment [1], the “cell growth (OD600): bridging TIR1 to the bait, leading to degradation” value is given as “functional bridging agents”.

As to `CC[C@H]1C=C(C(=O)N[C@@]2(C(=O)O)C[C@@H]2CC)[C@H]2CCC(=O)[C@H]2C1` [coronatine], the “cell growth (OD600): bridging COI1b to the bait, leading to degradation” value in experiment [2] (50 uM (wells G8/9)), in experiment [2] (75 uM (wells F8/9)) and in experiment [2] (100 uM (wells E8/9)) was “exhibited cell growth” throughout.

On to Gymnopeptide A [GymA], for which the IC50 values result in experiment [3] is “low nanomolar range”.

In the case of Gymnopeptide B [GymB], the IC50 values entry in experiment [3] is “low nanomolar range”.
